The compounds below were run on Streptococcus pyogenes (ATCC# 97-03 14289) (assay: Anti-microbial screen (growth inhibition, OD 570 nm)). Conditions: growth in Todd Hewitt Broth, plates read at 570 nm at 0 time and 4 hours, color corrected.
Assay type: cell-based
Method: Streptococcus pyogenes (ATCC# 97-03 14289) was grown in Todd Hewitt Broth (THB) (Difco Laboratories #0492-17-6) overnight until reaching an optical density of (OD=0.636 @ 570 nm) by reading 0.1 ml in a 96 well microtiter plate in a Molecular Devices Thermomax. This preparation was kept frozen as stocks in 30% v/v glycerol in 1.5 ml aliquots at −70^mC. until use. Prior to experiments, […] aliquots were thawed and diluted into 50 ml 2×THB. 60 ul of this dilution was added to 92 wells of microtiter plate. To three wells THB (200 ul) was added to serve as a blank and a sterility control. Test compounds in DMSO and appropriate concentrations of DMSO were added to Growth/Solvent Controls at 0 time. Plates were read at 0 time at 570 nm in the Molecular Devices plate reader to obtain compounds correction factors for insoluble or colored compounds. Plates were read again at 4 hours.
Percent inhibition is calculated with the following formulae: [drawing 4]
Color correct=O.D. 0 hr−Blank 0 hr)−(Solvent Control 0 hr−Blank 0 hr)
% Inhibition=100−O.D. test compound 4 hr−Blank 4 hr−color correct O.D. growth/solvent control 4 hr−Blank 4 hr

Compound	% Inhibition
CC(C)CC(=O)N1CCc2c(sc(NC(=O)c3ccccc3)c2C(=O)O)C1	98.72%
CC(=O)Nc1cccc(C(=O)N2CCc3c(sc(NC(=O)c4ccccc4)c3C(=O)O)C2)c1	96.85%
O=C(Nc1sc2c(c1C(=O)O)CCN(C(=O)c1cc3ccccc3s1)C2)c1ccco1	96.65%
CCCc1ccc(C(=O)Nc2sc3c(c2C(=O)O)CCN(C(=O)c2cccnc2OCC)C3)cc1	92.34%
CCCSc1ncccc1C(=O)N1CCc2c(sc(NC(=O)c3ccc(CC)cc3)c2C(=O)O)C1	92.01%
CC(=O)Nc1cccc(C(=O)N2CCc3c(sc(NC(=O)c4ccc(C(C)(C)C)cc4)c3C(=O)O)C2)c1	92.01%
CC(C)C(=O)N1CCc2c(sc(NC(=O)c3ccccc3)c2C(=O)O)C1	90.8%
CC(=O)Nc1ccc(C(=O)N2CCc3c(sc(NC(=O)c4ccccc4)c3C(=O)O)C2)cc1	90.8%
Cc1ccccc1C(=O)N1CCc2c(sc(NC(=O)c3ccco3)c2C(=O)O)C1	90.41%
COc1cccc(C(=O)Nc2sc3c(c2C(=O)O)CCN(C(=O)c2ccc(Cl)cc2)C3)c1	90.32%
CCCc1ccc(C(=O)Nc2sc3c(c2C(=O)O)CCN(C(=O)c2ccccc2SC)C3)cc1	90.02%
CC(C)(C)c1ccc(C(=O)Nc2sc3c(c2C(=O)O)CCN(C(=O)c2ccccc2Cl)C3)cc1	89.72%
O=C(Nc1sc2c(c1C(=O)O)CCN(C(=O)C1CCC1)C2)c1ccccc1	89.4%
CCCCOc1ccc(C(=O)Nc2sc3c(c2C(=O)O)CCN(C(=O)c2cc4ccccc4s2)C3)cc1	89.4%
CCCc1ccc(C(=O)Nc2sc3c(c2C(=O)O)CCN(C(=O)CCc2ccc(F)c(F)c2)C3)cc1	89.36%
CCCSc1ncccc1C(=O)N1CCc2c(sc(NC(=O)c3cccc(OC)c3)c2C(=O)O)C1	88.5%
CCCc1ccc(C(=O)Nc2sc3c(c2C(=O)O)CCN(C(=O)c2ccc(F)cc2F)C3)cc1	88.03%
O=C(Nc1sc2c(c1C(=O)O)CCN(C(=O)c1ccc(F)c(F)c1)C2)c1ccc2ccccc2c1	87.61%
Cn1cc(C(=O)N2CCc3c(sc(NC(=O)c4ccccc4)c3C(=O)O)C2)c2ccccc21	87.54%
O=C(Nc1sc2c(c1C(=O)O)CCN(C(=O)c1ccc(Cl)cc1)C2)c1ccccc1	87.07%
CC(C)(C)c1ccc(C(=O)Nc2sc3c(c2C(=O)O)CCN(C(=O)c2ccc(F)cc2F)C3)cc1	86.77%
CCCc1ccc(C(=O)Nc2sc3c(c2C(=O)O)CCN(C(=O)c2ccc(F)c(F)c2)C3)cc1	86.71%
CCCSc1ncccc1C(=O)N1CCc2c(sc(NC(=O)c3ccccc3)c2C(=O)O)C1	86.6%

Compound	% Inhibition
CCc1ccc(C(=O)Nc2sc3c(c2C(=O)O)CCN(C(=O)c2ccccc2SC)C3)cc1	86.44%
CCCc1ccc(C(=O)Nc2sc3c(c2C(=O)O)CCN(C(=O)c2ccccc2Cl)C3)cc1	86.38%
COc1ccc(OC)c(C(=O)N2CCc3c(sc(NC(=O)c4ccc5ccccc5c4)c3C(=O)O)C2)c1	86.36%
Cc1ccc(C)c(CC(=O)N2CCc3c(sc(NC(=O)c4ccccc4)c3C(=O)O)C2)c1	86.14%
CCc1ccc(C(=O)Nc2sc3c(c2C(=O)O)CCN(C(=O)c2ccccc2C(F)(F)F)C3)cc1	86.11%
COc1ccc(OC)c(C(=O)N2CCc3c(sc(NC(=O)CCC4CCCC4)c3C(=O)O)C2)c1	86.05%
CCCc1ccc(C(=O)Nc2sc3c(c2C(=O)O)CCN(C(=O)c2cccnc2SC)C3)cc1	86.05%
O=C(Nc1sc2c(c1C(=O)O)CCN(C(=O)c1ccsc1)C2)c1ccccc1Cl	85.87%
CCc1ccc(C(=O)Nc2sc3c(c2C(=O)O)CCN(C(=O)c2ccc(C)cc2C)C3)cc1	85.78%
CCc1ccc(C(=O)Nc2sc3c(c2C(=O)O)CCN(C(=O)CCc2ccc(F)c(F)c2)C3)cc1	85.13%
CCCc1ccc(C(=O)Nc2sc3c(c2C(=O)O)CCN(C(=O)CC(C)C)C3)cc1	84.72%
CCC(=O)N1CCc2c(sc(NC(=O)C(CC)c3ccccc3)c2C(=O)O)C1 (stereo not drawn)	60.7%
CCCc1ccc(C(=O)Nc2sc3c(c2C(=O)O)CCN(C(=O)c2cc(OC)ccc2OC)C3)cc1	60.54%
CSc1ncccc1C(=O)N1CCc2c(sc(NC(=O)c3ccccc3Cl)c2C(=O)O)C1	60.53%
COc1cccc(C(=O)N2CCc3c(sc(NC(=O)c4ccccc4Cl)c3C(=O)O)C2)c1OC	60.53%
O=C(Nc1sc2c(c1C(=O)O)CCN(C(=O)c1ccccc1Cl)C2)c1ccco1	60.48%
COc1cc(Cl)ccc1C(=O)N1CCc2c(sc(NC(=O)c3c(F)cccc3F)c2C(=O)O)C1	59.98%
CC(C)(C)c1ccc(C(=O)Nc2sc3c(c2C(=O)O)CCN(C(=O)C2CCCCC2)C3)cc1	59.89%
O=C(Nc1sc2c(c1C(=O)O)CCN(C(=O)C1CCC1)C2)c1ccc2ccccc2c1	59.86%
O=C(Nc1sc2c(c1C(=O)O)CCN(C(=O)c1ccc(C(F)(F)F)cc1)C2)c1c(F)cccc1F	59.67%
CC(C)CC(=O)N1CCc2c(sc(NC(=O)c3ccccc3Cl)c2C(=O)O)C1	59.63%
CC(C)(C)c1ccc(C(=O)Nc2sc3c(c2C(=O)O)CCN(C(=O)c2ccc(C(F)(F)F)cc2)C3)cc1	59.57%

Reference: US20030232994A1, “Bicyclic thiophene derivatives and combinatorial libraries thereof” (priority 2001, published 2003)
